SMILES strings stand for the structures.

Consider 8 molecules from ChEMBL document CHEMBL1150944, “New glycosides from ajuga decumbens” (J Nat Prod, 1998).

A short description of data set [1]: Cytotoxicity against human Raji cells assessed as cell viability at 1000 molar ratio after 48 hrs. In kind it is cell-based. Particulars: read-out: Activity.
Data set [2] can be described thus: Cytotoxicity against human Raji cells assessed as cell viability at 500 molar ratio after 48 hrs. The class given is cell-based. Particulars: read-out: Activity.
Data set [3] in a line: Cytotoxicity against human Raji cells assessed as cell viability at 100 molar ratio after 48 hrs. The class given is cell-based. Particulars: read-out: Activity.
Data set [4] in a line: Cytotoxicity against human Raji cells assessed as cell viability at 10 molar ratio after 48 hrs. In kind it is cell-based. Particulars: read-out: Activity.
For data set [5], the system named is Raji. Description: Inhibition of TPA-induced EBV-early antigen activation in human Raji cells at 10 molar ratio after 48 hrs relative to TPA by indirect immunofluorescence technique; values are per cent of control. Particulars: human gammaherpesvirus 4.
Data set [6] concerns Raji. Kind of data set: Inhibition of TPA-induced EBV-early antigen activation in human Raji cells at 100 molar ratio after 48 hrs relative to TPA by indirect immunofluorescence technique; values are per cent of control. Particulars: human gammaherpesvirus 4.
Data set [7] has as its system Raji. Description: Inhibition of TPA-induced EBV-early antigen activation in human Raji cells at 500 molar ratio after 48 hrs relative to TPA by indirect immunofluorescence technique; values are per cent of control. The settings on record: human gammaherpesvirus 4.
For data set [8], the system named is Raji. Kind of data set: Inhibition of TPA-induced EBV-early antigen activation in human Raji cells at 1000 molar ratio after 48 hrs relative to TPA by indirect immunofluorescence technique; values are per cent of control. Particulars: human gammaherpesvirus 4.

Turning to `CC(=O)O[C@@]1(C)C[C@@H](O)[C@]2(O)C=CO[C@@H](O[C@@H]3O[C@H](CO)[C@@H](O)[C@H](O)[C@H]3O)[C@@H]21`, in data set [1], the viability at 48 h, 1000 molar ratio turned out to be 60%. Further, in data set [2], the viability at 48 h, 500 molar ratio was more than 80%. In addition, the viability at 48 h, 100 molar ratio in data set [3] was more than 80%. In data set [4], the viability at 48 h, 10 molar ratio is more than 80%. Moreover, the level, % of control in data set [5] turned out to be 89.5%; in data set [6] it was 62.6%; in data set [7], 19.9%; in data set [8] it was 0%.

Turning to `C[C@]1(O)C[C@@H](O)[C@]2(O)C=CO[C@@H](O[C@H]3O[C@H](CO)[C@@H](O)[C@H](O)[C@H]3O)[C@@H]21`, the level, % of control stood at 100% in data set [5], 80.1% in data set [6], 52.7% in data set [7] and 0% in data set [8].

As for `CC(CO)c1cc2c(c(O)c1O[C@@H]1O[C@H](CO)[C@@H](O)[C@H](O)[C@H]1O)[C@@]1(C)CCC[C@](C)(CO[C@@H]3O[C@H](CO)[C@@H](O)[C@H](O)[C@H]3O)[C@@H]1CC2` (stereo partly specified) [AJUGASIDE A], in data set [1], the viability at 48 h, 1000 molar ratio turned out to be 60%. In addition, the viability at 48 h, 500 molar ratio in data set [2] is more than 80%. Moreover, in data set [3], the viability at 48 h, 100 molar ratio is more than 80%. Besides, the viability at 48 h, 10 molar ratio in data set [4] was more than 80%. For the same molecule, the level, % of control in data set [5] is 91%; in data set [6], 68.3%; in data set [7] it was 24.9%; in data set [8], 0%.

Turning to `COc1ccc(CCO[C@@H]2O[C@H](CO)[C@@H](O)[C@H](O[C@@H]3O[C@@H](C)[C@H](O)[C@@H](O)[C@H]3O)[C@H]2O)cc1O` [DARENDOSIDE A], in data set [1], the viability at 48 h, 1000 molar ratio was determined as 70%. Also, the viability at 48 h, 500 molar ratio in data set [2] was more than 80%. The viability at 48 h, 100 molar ratio in data set [3] was more than 80%. For the same molecule, the viability at 48 h, 10 molar ratio in data set [4] is more than 80%. The level, % of control is 100% in data set [5], 81.6% in data set [6], 53.8% in data set [7] and 22.6% in data set [8].

In the case of `COc1ccc(CCO[C@@H]2O[C@H](CO)[C@@H](OC(=O)/C=C/c3ccc(O)c(OC)c3)[C@H](O[C@@H]3O[C@@H](C)[C@H](O)[C@@H](O)[C@H]3O[C@@H]3O[C@H](CO)[C@H](O)[C@H](O)[C@H]3O)[C@H]2O)cc1O` [GALACTOSYLMARTYNOSIDE], the viability at 48 h, 1000 molar ratio in data set [1] was 60%. For the same molecule, the viability at 48 h, 500 molar ratio in data set [2] is more than 80%. For the same molecule, in data set [3], the viability at 48 h, 100 molar ratio is more than 80%. In data set [4], the viability at 48 h, 10 molar ratio was more than 80%. The level, % of control was 98.5% in data set [5], 76% in data set [6], 31.8% in data set [7] and 0% in data set [8].

Turning to `C[C@]1(O)C[C@@H](O)[C@]2(O)C=CO[C@@H](O[C@@H]3O[C@H](CO)[C@@H](O)[C@H](O)[C@H]3O)[C@@H]21` [HARPAGIDE], the viability at 48 h, 1000 molar ratio in data set [1] came to 60%. In addition, the viability at 48 h, 500 molar ratio in data set [2] was more than 80%. The viability at 48 h, 100 molar ratio in data set [3] is more than 80%. For the same molecule, the viability at 48 h, 10 molar ratio in data set [4] was more than 80%.

In the case of `COc1ccc(CCO[C@@H]2O[C@H](CO)[C@@H](OC(=O)/C=C/c3ccc(O)c(OC)c3)[C@H](O[C@@H]3O[C@@H](C)[C@H](O)[C@@H](O)[C@H]3O)[C@H]2O)cc1O` [MARTYNOSIDE A], in data set [1], the viability at 48 h, 1000 molar ratio came to 60%. The viability at 48 h, 500 molar ratio in data set [2] was more than 80%. The viability at 48 h, 100 molar ratio in data set [3] is more than 80%. Further, in data set [4], the viability at 48 h, 10 molar ratio is more than 80%. Besides, the level, % of control in data set [5] amounted to 89.4%; in data set [6], 66.4%; in data set [7], 31.7%; in data set [8] it was 0%.

On to `CC(=O)O[C@@]1(C)CC[C@]2(O)C=CO[C@@H](O[C@@H]3O[C@H](CO)[C@@H](O)[C@H](O)[C@H]3O)[C@@H]21` [REPTOSIDE], for which the viability at 48 h, 1000 molar ratio in data set [1] is 60%. For the same molecule, in data set [2], the viability at 48 h, 500 molar ratio is more than 80%. Moreover, in data set [3], the viability at 48 h, 100 molar ratio was more than 80%. In addition, the viability at 48 h, 10 molar ratio in data set [4] was more than 80%. Further, the level, % of control in data set [5] came to 90.3%; in data set [6] it was 71.3%; in data set [7], 22.4%; in data set [8], 0%.
